Measured values taken from patent US7786083B2, “Metastin derivatives and use thereof” (Takeda Pharmaceutical Company Limited, priority 2006, dated 2010).
*1 amine or outer side, *2 acyl side, *3 side chain or, on linkers, in order; H or OH if unused. Where a SMILES comes first, the peptide text is derived from it. Where no end group is shown, it is not given here. [ ]: non-standard residue; d: D form. Pro(trans-4-F) = O=C(O)[C@@H]1C[C@@H](F)CN1; X8 = O=C(CSC[C@H](Cc1ccccc1)N[*:1])[*:2]; 2Nal = N[C@@H](Cc1ccc2ccccc2c1)C(=O)O; X1 = CC(C)C[C@H](CCCN[*:1])C(=O)[*:2]; Arg(Me) = CNC(=N)NCCC[C@H](N)C(=O)O; Dap(CONH2) = NC(=O)NC[C@H](N)C(=O)O; Ala(cPr) = N[C@@H](CC1CC1)C(=O)O; Hyp = O=C(O)[C@@H]1C[C@@H](O)CN1; Cha = N[C@@H](CC1CCCCC1)C(=O)O; Cba = N[C@@H](CC1CCC1)C(=O)O; Dap = NC[C@H](N)C(=O)O

test system: metastin receptors; assay: Measurement of agonist activity by assaying changes in intracellular calcium ion level (FLIPR, Fluo-4 NW); format: cell-based, human; conditions: specific activity of the EC50 of a test compound based on the EC50 of Metastin (45-54), metastin receptor expression CHO cells
Method in brief: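 CHO/dhfr⁻ cells stably expressing human or rat metastin receptor, seeded 3×10^4/well for 24 h, loaded with Fluo-4 NW 30 min at 37 °C in HBSS with 0.1% BSA, 20 mM HEPES pH 7.4 and 1 mM probenecid. Compound-stimulated intracellular calcium change read on FLIPR.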

| Specific Activity | Compound |
| --- | --- |
| 0.5 | CC(=O)N[C@H](Cc1ccc(O)cc1)C(=O)N1C[C@H](O)C[C@H]1C(=O)N[C@@H](CC(N)=O)C(=O)N[C@H](C(=O)N[C@@H](CC1CCCCC1)C(=O)NCC(=O)N[C@@H](CC1CC1)C(=O)N[C@@H](CCCNC(=N)N)C(=O)N[C@@H](Cc1c[nH]c2ccccc12)C(N)=O)[C@@H](C)O [Compound No. 940, des(1)-Ac-[D-Tyr2,Hyp3,Thr5,Cha6,Ala(cPr)8,Trp10]MS10] (Ac-[dY][Hyp]NT[Cha]G[Ala(cPr)]RW-NH2) |
| 0.4 | CC(=O)N[C@H](Cc1ccc(O)cc1)C(=O)N[C@@H](CCC(=O)O)C(=O)N[C@@H](CC(N)=O)C(=O)N[C@H](C(=O)N[C@@H](CC1CCCCC1)C(=O)NCC(=O)N[C@@H](CC1CC1)C(=O)N[C@@H](CCCNC(=N)N)C(=O)N[C@@H](Cc1c[nH]c2ccccc12)C(N)=O)[C@@H](C)O [Compound No. 942, des(1)-Ac-[D-Tyr2,Glu3,Thr5,Cha6,Ala(cPr)8,Trp10]MS10] (Ac-[dY]ENT[Cha]G[Ala(cPr)]RW-NH2) |
| 0.7 | CNC(=N)NCCC[C@H](NC(=O)[C@H](CC(C)C)NC(=O)CSC[C@H](Cc1ccccc1)NC(=O)[C@@H](NC(=O)[C@H](CC(N)=O)NC(=O)[C@@H]1C[C@@H](O)CN1C(=O)[C@@H](Cc1ccc(O)cc1)NC(C)=O)[C@@H](C)O)C(=O)N[C@@H](Cc1c[nH]c2ccccc12)C(N)=O [Compound No. 944, des(1)-Ac-[D-Tyr2,Hyp3,Thr5,Phe6Ψ(CH2S)Gly7,Arg(Me)9,Trp10]MS10] (Ac-[dY][Hyp]NT[X8]L[Arg(Me)]W-NH2) |
| 0.7 | CNC(=N)NCCC[C@H](NC(=O)[C@H](CC1CC1)NC(=O)CNC(=O)[C@H](CC1CCC1)NC(=O)[C@@H](NC(=O)[C@H](CC(N)=O)NC(=O)[C@@H]1C[C@@H](O)CN1C(=O)[C@@H](Cc1ccc(O)cc1)NC(C)=O)[C@@H](C)O)C(=O)N[C@@H](Cc1c[nH]c2ccccc12)C(N)=O [Compound No. 945, des(1)-Ac-[D-Tyr2,Hyp3,Thr5,Ala(cBu)6,Ala(cPr)8,Arg(Me)9,Trp10]MS10] (Ac-[dY][Hyp]NT[Cba]G[Ala(cPr)][Arg(Me)]W-NH2) |
| 0.5 | CNC(=N)NCCC[C@H](NC(=O)[C@H](CC1CCC1)NC(=O)CNC(=O)[C@H](CC1CCCCC1)NC(=O)[C@@H](NC(=O)[C@H](CC(N)=O)NC(=O)[C@@H]1C[C@@H](O)CN1C(=O)[C@@H](Cc1ccc(O)cc1)NC(C)=O)[C@@H](C)O)C(=O)N[C@@H](Cc1c[nH]c2ccccc12)C(N)=O [Compound No. 946, des(1)-Ac-[D-Tyr2,Hyp3,Thr5,Cha6,Ala(cBu)8,Arg(Me)9,Trp10]MS10] (Ac-[dY][Hyp]NT[Cha]G[Cba][Arg(Me)]W-NH2) |
| 0.5 | CNC(=N)NCCC[C@H](NC(=O)[C@H](CC1CC1)NC(=O)CNC(=O)[C@H](CC1CCCCC1)NC(=O)[C@H](CO)NC(=O)[C@H](CNC(N)=O)NC(=O)[C@@H]1C[C@@H](O)CN1C(=O)[C@@H](Cc1ccc(O)cc1)NC(C)=O)C(=O)N[C@@H](Cc1c[nH]c2ccccc12)C(N)=O [Compound No. 948, des(1)-Ac-[D-Tyr2,Hyp3,Alb4,Ser5,Cha6,Ala(cPr)8,Arg(Me)9,Trp10]MS10] (Ac-[dY][Hyp][Dap(CONH2)]S[Cha]G[Ala(cPr)][Arg(Me)]W-NH2) |
| 0.7 | CNC(=N)NCCC[C@H](NC(=O)[C@H](CC1CC1)NC(=O)CNC(=O)[C@H](CC1CCCCC1)NC(=O)CNC(=O)[C@H](CNC(N)=O)NC(=O)[C@@H]1C[C@@H](O)CN1C(=O)[C@@H](Cc1ccc(O)cc1)NC(C)=O)C(=O)N[C@@H](Cc1c[nH]c2ccccc12)C(N)=O [Compound No. 949, des(1)-Ac-[D-Tyr2,Hyp3,Alb4,Gly5,Cha6,Ala(cPr)8,Arg(Me)9,Trp10]MS10] (Ac-[dY][Hyp][Dap(CONH2)]G[Cha]G[Ala(cPr)][Arg(Me)]W-NH2) |
| 0.7 | CNC(=N)NCCC[C@H](NC(=O)[C@H](CC1CC1)NC(=O)CNC(=O)[C@H](CC1CCCCC1)NC(=O)[C@H](CN)NC(=O)[C@H](CNC(N)=O)NC(=O)[C@@H]1C[C@@H](O)CN1C(=O)[C@@H](Cc1ccc(O)cc1)NC(C)=O)C(=O)N[C@@H](Cc1c[nH]c2ccccc12)C(N)=O [Compound No. 951, des(1)-Ac-[D-Tyr2,Hyp3,Alb4,Dap5,Cha6,Ala(cPr)8,Arg(Me)9,Trp10]MS10] (Ac-[dY][Hyp][Dap(CONH2)][Dap][Cha]G[Ala(cPr)][Arg(Me)]W-NH2) |
| 1.3 | CC(=O)N[C@H](Cc1ccc(O)cc1)C(=O)N1C[C@H](O)C[C@H]1C(=O)N[C@@H](CNC(N)=O)C(=O)N[C@H](C(=O)N[C@@H](CC1CCCCC1)C(=O)NCCC[C@@H](CC(C)C)C(=O)N[C@@H](CCCNC(=N)N)C(=O)N[C@@H](Cc1c[nH]c2ccccc12)C(N)=O)[C@@H](C)O [Compound No. 952, des(1)-Ac-[D-Tyr2,Hyp3,Alb4,Thr5,Cha6,Gly7Ψ(CH2CH2)Leu8,Trp10]MS10] (Ac-[dY][Hyp][Dap(CONH2)]T[Cha][X1]RW-NH2) |
| 0.5 | CNC(=N)NCCC[C@H](NC(=O)[C@H](CC1CC1)NC(=O)CNC(=O)[C@H](CC1CCCCC1)NC(=O)[C@@H](NC(=O)[C@H](CNC(N)=O)NC(=O)[C@@H]1C[C@@H](O)CN1C(=O)[C@@H](Cc1ccc(O)cc1)NC(C)=O)[C@@H](C)O)C(=O)N[C@@H](Cc1c[nH]c2ccccc12)C(N)=O [Compound No. 953, des(1)-Ac-[D-Tyr2,Hyp3,Alb4,Thr5,Cha6,Ala(cPr)8,Arg(Me)9,Trp10]MS10] (Ac-[dY][Hyp][Dap(CONH2)]T[Cha]G[Ala(cPr)][Arg(Me)]W-NH2) |
| 1.1 | CC(=O)N[C@H](Cc1ccc(O)cc1)C(=O)N1C[C@H](O)C[C@H]1C(=O)N[C@@H](CC(N)=O)C(=O)N[C@H](C(=O)N[C@@H](CC1CCCCC1)C(=O)NCCC[C@@H](CC(C)C)C(=O)N[C@@H](CCCNC(=N)N)C(=O)N[C@@H](Cc1c[nH]c2ccccc12)C(N)=O)[C@@H](C)O [Compound No. 956, des(1)-Ac-[D-Tyr2,Hyp3,Thr5,Cha6,Gly7Ψ(CH2CH2)Leu8,Trp10]MS10] (Ac-[dY][Hyp]NT[Cha][X1]RW-NH2) |
| 1.1 | CNC(=N)NCCC[C@H](NC(=O)[C@@H](CCCNC(=O)[C@H](CC1CCCCC1)NC(=O)[C@@H](NC(=O)[C@H](CNC(N)=O)NC(=O)[C@@H]1C[C@@H](O)CN1C(=O)[C@@H](Cc1ccc(O)cc1)NC(C)=O)[C@@H](C)O)CC(C)C)C(=O)N[C@@H](Cc1c[nH]c2ccccc12)C(N)=O [Compound No. 957, des(1)-Ac-[D-Tyr2,Hyp3,Alb4,Thr5,Cha6,Gly7Ψ(CH2CH2)Leu8,Arg(Me)9,Trp10]MS10] (Ac-[dY][Hyp][Dap(CONH2)]T[Cha][X1][Arg(Me)]W-NH2) |
| 0.6 | CNC(=N)NCCC[C@H](NC(=O)[C@H](CC(C)C)NC(=O)NCC[C@H](Cc1ccccc1)NC(=O)[C@@H](NC(=O)[C@H](CC(N)=O)NC(=O)[C@@H]1C[C@@H](O)CN1C(=O)[C@@H](Cc1ccc(O)cc1)NC(C)=O)[C@@H](C)O)C(=O)N[C@@H](Cc1c[nH]c2ccccc12)C(N)=O [Compound No. 968, des(1)-Ac-[D-Tyr2,Hyp3,Thr5,Phe6Ψ(CH2CH2)AzaGly7,Arg(Me)9,Trp10)MS10] |
| 2.9 | des(1)-Ac-[D-Tyr2,Hyp3,Thr5,Gly7Ψ(CH2NH)Leu8,Arg(Me)9,Trp10]MS10 (Ac-[dY][Hyp]NTFGL[Arg(Me)]W-NH2; also: -CONH- between Gly and Leu replaced by -CH2NH-) [Compound No. 854] |

| Compound | Specific Activity |
| --- | --- |
| des(1)-Ac-[D-Tyr2,Hyp3,Alb4,Ala5,Cha6,Ala(cPr)8,Arg(Me)9,Trp10]MS10 (Ac-[dY][Hyp][Dap(CONH2)]A[Cha]G[Ala(cPr)][Arg(Me)]W-NH2; SMILES CNC(=N)NCCC[C@H](NC(=O)[C@H](CC1CC1)NC(=O)CNC(=O)[C@H](CC1CCCCC1)NC(=O)[C@H](C)NC(=O)[C@H](CNC(N)=O)NC(=O)[C@@H]1C[C@@H](O)CN1C(=O)[C@@H](Cc1ccc(O)cc1)NC(C)=O)C(=O)N[C@@H](Cc1c[nH]c2ccccc12)C(N)=O) [Compound No. 947] | 0.5 |
| des(1)-Ac-[D-Tyr2,Hyp3,Thr5,Nal(2)6,Arg(Me)9,Trp10]MS10 (Ac-[dY][Hyp]NT[2Nal]GL[Arg(Me)]W; ends and bridges not checked) [Compound No. 919] | 1.0 |
| des(1)-Ac-[D-Tyr2,Pro(4F)3,Thr5,Cha6,Ala(cPr)8,Arg(Me)9,Trp10]MS10 (Ac-[dY][Pro(trans-4-F)]NT[Cha]G[Ala(cPr)][Arg(Me)]W-NH2; SMILES CNC(=N)NCCC[C@H](NC(=O)[C@H](CC1CC1)NC(=O)CNC(=O)[C@H](CC1CCCCC1)NC(=O)[C@@H](NC(=O)[C@H](CC(N)=O)NC(=O)[C@@H]1C[C@@H](F)CN1C(=O)[C@@H](Cc1ccc(O)cc1)NC(C)=O)[C@@H](C)O)C(=O)N[C@@H](Cc1c[nH]c2ccccc12)C(N)=O) [Compound No. 959] | 0.4 |
